Here are results for 7 molecules from patent publication US12673038B2, “Antimycotic methoxyflavone and fluconazole combination for inhibiting cryptococcus” (Karl-Franzens-Universität Graz, priority 2019, dated 2026).

Each structure is given as a SMILES string.

Assay [1] deals with C. albicans. Nature of the assay: In vitro antifungal activity of flavone in combination with azoles, growth via OD490. It counts as cell-based, Candida albicans. As to conditions: OD490, flavone plus azole vs each alone.
Assay [2] concerns fungi including Aspergillus and Fusarium species. As to conditions: Weidenbörner et al., Mycol. Res. 101 (1997); cited from earlier work.

For `COc1cc(-c2cc(=O)c3c(OC)c(OC)c(OC)cc3o2)cc(OC)c1OC` [3′,4′,5′,5,6,7-HMF, 3′,4′,5′,5,6,7-hexymethoxyflaovne], the “enhancement of the antifungal activity of azoles in the presence of the flavone” value (“enhancement” below) in assay [1] was “enhancement of the antifungal activity”.

As to `O=c1cc(-c2ccccc2)oc2c1ccc1ccccc12` [7,8-BF, 7,8-benzoflavone], the “enhancement” value in assay [1] is recorded as “enhancement of the antifungal activity”.

With `COc1ccc2c(=O)cc(-c3ccccc3)oc2c1` [7-MF, 7-methoxyflavone], in assay [1], the “enhancement” value is listed as “enhancement of the antifungal activity”.

`O=c1cc(-c2ccccc2)oc2ccc3ccccc3c12` [5,6-BF, 5,6-benzoflavone]: the “enhancement” value in assay [1] is “enhancement of the antifungal activity”.

As for `COc1ccccc1-c1cc(=O)c2ccccc2o1` [2′-MF, 2′-methoxyflavone], the “enhancement” value in assay [1] is reported as “enhancement of the antifungal activity”.

Regarding `O=c1cc(-c2ccccc2)oc2ccccc12` [flavone], in assay [2], the antifungal effect entry is listed as “displays an antifungal effect”.

As for `COc1cc(OC)c2c(=O)cc(-c3ccc(OC)c(OC)c3)oc2c1` [3′,4′,5,7-TMF, 3′,4′,5,7-tetrametoxyflavone], the “enhancement” value in assay [1] is recorded as “enhancement of the antifungal activity”.
